Experimental data: US8247211B2, “Glycopeptide antibiotics” (American Cyanamid Company, priority 2001, dated 2012)
Converted amounts (≈) assume the structure as drawn.

What was measured:
Experiment in all cases: In vitro antibacterial evaluation: minimum inhibitory concentration (MIC), broth dilution method
Type in all cases: cell-based
[1] = system: Enterococcus sp.; conditions: broth dilution, 5×10^5 CFU/mL, 18 hours at 35° C.
Description: (§1) The minimum inhibitory concentration (MIC), the lowest concentration of the antibiotic which inhibits growth of the test organism, is determined by the broth dilution method using Muller-Hinton II […] (Baltimore Biological Laboratories) following the recommendations of the National Committee for Clinical Laboratory Standards [Methods for dilution antimicrobial susceptibility tests for bacteria that grow aerobically, approved standard M7-A2, National Committee for Clinical Laboratory Standards, Villanova, Pa].
(§2) An inoculum level of 5×10^5 CFU/mL, and a range of antibiotic concentrations (64-0.06 μg/mL) is used. […] The test organisms include a spectrum of Gram-positive bacteria comprised of Staphylococcus sp., Streptococcus sp. and Enterococcus sp. These organisms include recent clinical isolates that are resistant to methicillin, penicillin and/or vancomycin.

[2] = system: Escherichia coli; conditions: 5×10^5 CFU/mL, 18 hours at 35° C.
Description: as §1, §2

[3] = system: Staphylococcus sp.; conditions: for MIC Staphylococcus aureus (ATCC 29213): strain ATCC 29213; for MIC Staphylococcus aureus (GC 1131): strain GC 1131; for MIC Staphylococcus aureus (GC 3051): strain GC 3051; for MIC Staphylococcus aureus (GC 3053): strain GC 3053; for MIC Staphylococcus aureus (GC 4541): strain GC 4541; for MIC Staphylococcus aureus (GC 4542): strain GC 4542; for MIC Staphylococcus aureus-SMITH (GC 4543): strain GC 4543; for MIC Staphylococcus aureus (GC 4544): strain GC 4544; for MIC Staphylococcus aureus (GC 4545): strain GC 4545; for MIC Staphylococcus haemolyticus (GC 4546): strain GC 4546; for MIC Coagulase Negative Staphylococcus (GC 4547): strain GC 4547; for MIC Coagulase Negative Staphylococcus (GC 4548): strain GC 4548; for MIC Coagulase Negative Staphylococcus (GC 4549): strain GC 4549; for MIC Coagulase Negative Staphylococcus (GC 4551): strain GC 4551; for MIC Coagulase Negative Staphylococcus (GC 6257): strain GC 6257
Description: as §1, §2

[4] = system: Streptococcus sp.; conditions: broth dilution, 5×10^5 CFU/mL, 18 hours at 35° C.
Description: as §1, §2

[5] = broth dilution, 18 hours at 35° C.

CC(c1ccccc1)C1NC(=O)CNC(=O)C(CO)NC(=O)C(C(O)C2CNC(=N)N2C2OC(CO)C(O)C(O)C2O)NC(=O)C(C(O)C2CNC(=N)N2)NC(=O)C(Cc2ccc(OC3OC(CO)C(OC4OC5COC(CCc6ccccc6)OC5C(O)C4O)C(O)C3O)cc2)NC1=O (centres unmarked) [Example 124]
MIC Enterococccus avium (GC 4558) [1]: 0.25 µg/mL (≈ 0.177 µM) | MIC Enterococccus faecalis (ATCC 29212) [1]: 4 µg/mL (≈ 2.83 µM) | MIC Enterococccus faecalis (GC 2691) [1]: 4 µg/mL (≈ 2.83 µM) | MIC Enterococccus faecalis (GC 3059) [1]: 4 µg/mL (≈ 2.83 µM) | MIC Enterococccus faecalis (GC 4552) [1]: 4 µg/mL (≈ 2.83 µM) | MIC Enterococccus faecalis (GC 4553) [1]: 4 µg/mL (≈ 2.83 µM) | MIC Enterococccus faecalis (GC 4554) [1]: 4 µg/mL (≈ 2.83 µM) | MIC Enterococccus faecalis (GC 6189) [1]: 4 µg/mL (≈ 2.83 µM) | MIC Enterococccus faecium (GC 2243) [1]: 4 µg/mL (≈ 2.83 µM) | MIC Enterococccus faecium (GC 4556) [1]: 4 µg/mL (≈ 2.83 µM) | MIC Enterococccus faecium (GC 4557) [1]: 1 µg/mL (≈ 0.708 µM) | MIC Enterococcus faecalis (GC 2242) [1]: 4 µg/mL (≈ 2.83 µM) | MIC Escherichia coli (ATCC 25922) [2]: 32 µg/mL (≈ 22.7 µM) | MIC Escherichia coli (GC 4559) [2]: 32 µg/mL (≈ 22.7 µM) | MIC Escherichia coli (GC 4560) [2]: 1 µg/mL (≈ 0.708 µM) | MIC Staphylococcus aureus (ATCC 29213) [3]: 2 µg/mL (≈ 1.42 µM) | MIC Staphylococcus aureus (ATCC 29213) [3, 5]: 2 µg/mL (≈ 1.42 µM) | MIC Staphylococcus aureus (GC 1131) [3]: 2 µg/mL (≈ 1.42 µM) | MIC Staphylococcus aureus (GC 1131) [3, 5]: 2 µg/mL (≈ 1.42 µM) | MIC Staphylococcus aureus (GC 3051) [3]: 2 µg/mL (≈ 1.42 µM) | MIC Staphylococcus aureus (GC 3051) [3, 5]: 2 µg/mL (≈ 1.42 µM) | MIC Staphylococcus aureus (GC 3053) [3]: 2 µg/mL (≈ 1.42 µM) | MIC Staphylococcus aureus (GC 3053) [3, 5]: 2 µg/mL (≈ 1.42 µM) | MIC Staphylococcus aureus (GC 4541) [3]: 2 µg/mL (≈ 1.42 µM) | MIC Staphylococcus aureus (GC 4541) [3, 5]: 2 µg/mL (≈ 1.42 µM) | MIC Staphylococcus aureus (GC 4542) [3]: 1 µg/mL (≈ 0.708 µM) | MIC Staphylococcus aureus (GC 4542) [3, 5]: 1 µg/mL (≈ 0.708 µM) | MIC Staphylococcus aureus-SMITH (GC 4543) ([3]; 18 hours at 35° C.): 2 µg/mL (≈ 1.42 µM) | MIC Staphylococcus aureus-SMITH (GC 4543) [3, 5]: 2 µg/mL (≈ 1.42 µM) | MIC Staphylococcus aureus (GC 4544) [3]: 2 µg/mL (≈ 1.42 µM) | MIC Staphylococcus aureus (GC 4544) [3, 5]: 2 µg/mL (≈ 1.42 µM) | MIC Staphylococcus aureus (GC 4545) [3]: 2 µg/mL (≈ 1.42 µM) | MIC Staphylococcus aureus (GC 4545) [3, 5]: 2 µg/mL (≈ 1.42 µM) | MIC Staphylococcus haemolyticus (GC 4546) [3]: 2 µg/mL (≈ 1.42 µM) | MIC Staphylococcus haemolyticus (GC 4546) [3, 5]: 2 µg/mL (≈ 1.42 µM) | MIC Coagulase Negative Staphylococcus (GC 4547) [3]: 2 µg/mL (≈ 1.42 µM) | MIC Coagulase Negative Staphylococcus (GC 4547) [3, 5]: 2 µg/mL (≈ 1.42 µM) | MIC Coagulase Negative Staphylococcus (GC 4548) [3]: 1 µg/mL (≈ 0.708 µM) | MIC Coagulase Negative Staphylococcus (GC 4548) [3, 5]: 1 µg/mL (≈ 0.708 µM) | MIC Coagulase Negative Staphylococcus (GC 4549) [3]: 1 µg/mL (≈ 0.708 µM) | MIC Coagulase Negative Staphylococcus (GC 4549) [3, 5]: 1 µg/mL (≈ 0.708 µM) | MIC Coagulase Negative Staphylococcus (GC 4551) [3]: 2 µg/mL (≈ 1.42 µM) | MIC Coagulase Negative Staphylococcus (GC 4551) [3, 5]: 2 µg/mL (≈ 1.42 µM) | MIC Coagulase Negative Staphylococcus (GC 6257) [3]: 1 µg/mL (≈ 0.708 µM) | MIC Coagulase Negative Staphylococcus (GC 6257) [3, 5]: 1 µg/mL (≈ 0.708 µM) | MIC Streptococcus agalactiae (GC 4564) [4]: 1 µg/mL (≈ 0.708 µM) | MIC Streptococcus pneumoniae (GC 1894) [4]: <0.06 µg/mL | MIC Streptococcus pneumoniae (GC 4565) [4]: <0.06 µg/mL | MIC Streptococcus pneumonine (ATCC 6301) [4]: <0.06 µg/mL | MIC Streptococcus pyogenes (GC 4563) [4]: 0.12 µg/mL (≈ 0.085 µM)
